Measured values reported in US11857550B2, “Benzathine analogs” (University of Pittsburgh—Of the Commonwealth System of …, priority 2012, dated 2024).

Legend:
[1] = test system: human PBMC cells; assay: LPS-induced IL1β and TNFα cytokine release from PBMC cells (ELISA); format: cell-based; conditions: LPS-exposed human PBMC
Description: (§1) FIGS. 20A-20J is a table depicting benzathine compounds, and assay results. PBMC cells (0.6 ml at 1.5*10^6/ml) were treated with 2 ug/ml LPS for 16 hrs along with each compound at different concentrations. IL1β and TNFα cytokine release were monitored by ELISA to calculate the IC50. U937 monocyte (0.6 ml at 1.5*10^6/ml) were treated with each compound at different concentrations for 16 h. Cells were then stained with Trypan blue to differentiate dead cells, and calculate the LD50. Therapeutic index (TI)=LD50/IC50. Compounds marked in red are high value targets (low IC50, high LD50) and require further testing in vivo.
(§2) Briefly, compounds were added to human PBMC cells at different concentrations that were exposed to […] and cytokine secretion was monitored by ELISA to determine the IC50. Compounds were also added to U937 monocytes at different concentrations, and cells were stained with trypan blue to determine the LD50. […] Several functional studies were undertaken to assess anti-inflammatory effects focusing on BC-1215.

[2] = test system: U937 monocyte; assay: U937 monocyte Trypan blue cell death (LD50); format: cell-based, human; conditions: U937 monocytes, 16 h
Description: as §1, §2

[3] = test system: MLE cells; assay: BrdU/7-AAD FACS cell cycle and apoptosis analysis; format: cell-based, murine
Description: FIGS. 27A-27G. […] A. PBMCs from 5 controls, AML, and ALL subjects were cultured in RPMI medium for 18 h. Cells were then collected, lysed, and assayed for protein immunoblotting. B-D. Human leukemia cells (U937, K562 and THP1 cells) were treated with BC-1258 at different concentrations for 16 h. Cells were collected and assayed for Aurora B, cyclin D2, cyclin D3 and FBXL2 immunoblotting. E-F. MLE cells were treated with BC-1258 at different concentrations for 16 h, cells were processed by BrdU uptake and 7-AAD staining followed by FACS cell cycle analysis (E), 2N, 4N, and 8N DNA histograms were quantitated and graphed in (F). G. Quantification of FACS analysis showing levels of apoptotic MLE cells after BC-1258 treatment at each time point.

[4] = test system: U937 tumor implants; assay: U937 tumor xenograft in nude mice; format: in vivo; conditions: 30 ug/ml in the drinking water
Description: FIGS. 28A-281. […] A-E. Effect of BC-1258 and other compounds on growth of U937 tumor implants in nude mice, n=4 mice/group with drug concentration at 30 ug/ml in the drinking water. […] B. Tumor volume measurements over time (n=4 mice/group, *P<0.05 versus con). D. Tumor tissue from C were weighted and graphed (n=4 mice/group, *P<0.05 versus con). E. Tumors from three controls and three drug treated U937 implants in mice were collected at the end-point, and assayed for AuroraB, CaM and FBXL2 proteins by immunoblotting. F-I. Serum of each mice were collected at the end point and processed for creatinine, LDH, ALT and creatine kinase activity.

[5] = test system: C57BL6 mice; assay: TPA induced ear edema; format: in vivo; conditions: various doses to ears 30 min after TPA, 18 h
Description: FIGS. 15A-15C. […] FIG. 15A-15C. C57BL6 mice were deeply anesthetized with ketamine (80-100 mg/kg i.p.) and xylazine (10 mg/kg i.p.). 20 μl of ethanol solution of BC-1215 was applied to ears at 8, 40, 200 ug/ear 30 min after TPA administration (2 μg/ear). Comparisons included equal volumes of ethanol (vehicle control). 18 h after TPA administration, mice were euthanized; the thickness of the ear was measured using a micrometer (FIG. 15B). Ear punch biopsies were also taken immediately, weighed and graphed (FIG. 15C).
FIGS. 23A-23D. […] Different dose of BC-1261 was applied to ears of mice at various doses 30 min after TPA administration (2 μg/ear). A. Gross comparisons were made with equal volumes of ethanol as a vehicle control (CON). 18 h after TPA administration, mice were euthanized and the thickness of the ear was measured using a micrometer (B). Autopsy sample were also taken to measure MPO activity (C) and calculate ear edema (D). The data represent n=6 mice/group, *P<0.05 versus TPA.
Topical application of BC-1215 as an anti-inflammatory agent was tested in a model of 12-O-tetradecanoylphorbol-13-acetate (TPA) induced ear edema (Bralley et. al., J Inflamm (LOnd), 2008. 5:p.1). Briefly, 20 μl of an ethanol solution of BC-1215 was applied to ears of mice at 8, 40, and 200 ug/ear for 30 min after TPA administration (2 μg/ear). Comparisons included equal volumes of ethanol (vehicle control). 18 h after TPA administration, mice were euthanized; the thickness of the ear was measured using a micrometer. Ear punch biopsies were also taken immediately, weighed, and graphed.

[6] = test system: mice; assay: Cigarette smoke induced chronic lung inflammation; format: in vivo; conditions: 100 ug i.p. after 5 weeks smoke, 18 h
Description: FIGS. 22A-22C. […] Mice were exposed to cigarette smoke for 5 weeks before one does of i.p. injection of BC1261 (100 ug), 18 h later, mice were euthanized and lungs were lavaged with saline, harvested, and then homogenized. Lavage protein, cell counts and cytokine secretion were measured in (A-C). The data represent n=3 mice/group, *P<0.05 versus con.

[7] = test system: C57BL6 mice; assay: Pseudomonas aeruginosa PA103 pneumonia model; format: in vivo; conditions: i.p., PA103 2.5*10^4 cfu/mouse i.t., 18 h
[8] = test system: C57BL6 mice; assay: DSS induced chronic colonic inflammation; format: in vivo; conditions: 30 μg/ml drinking water from day 7, 2% DSS cycles
Description: FIGS. 25A-25J. […] A. C57BL6 mice were fed with water ad lib containing 2% dextran sulfate sodium (DSS) for six days, then switch to water for up to three cycles. BC-1261 was administered into drinking water at 30 μg/ml, starting at day 7. Mice were euthanized at the end of the experiment and the length of the colon was measured and graphed in (B-C). Disease index was measured and graphed in (D). Serum cytokine levels were measured in (E-F). Colonic tissues cytokines and MPO activity were also analyzed (GJ). The data represent n=7 mice/group, *P<0.05 versus CON.

[9] = test system: C57BL6 mice; assay: DSS induced (acute) colitis; format: in vivo; conditions: 150 μg daily i.p. or 30 μg/ml drinking water, 3.5% DSS
Description: FIGS. 17A-17D. BC-1215 reduces DSS induced colonic inflammation. FIGS. 17A-FIG. 17C. C57BL6 mice were fed with water containing 3.5% dextran sulfate sodium (DSS) for up to five days. Mice were treated with either vehicle or 100 ug of BC-1215 daily (via IP injection). Mice were then euthanized; the length of the colon was measured and graphed in (FIG. 17A). Colonic tissues were also analyzed for IL1β (FIG. 17B) and TNFα (FIG. 17C) by ELISA. (n=4 mice/group, *p<0.05 versus DSS) FIG. 17D, H&E staining was performed on colonic samples. (n=4 mice/group, *p<0.05 versus DSS)
FIGS. 24A-24E. […] A-D. C57BL6 mice were fed with water ad lib containing 3.5% dextran sulfate sodium (DSS) for up to five days. Mice were treated with either vehicle (control [CON]) or BC-1261 (150 μg) daily (via an i.p. injection), or BC-1261 were administered into drinking water at 30 μg/ml (po). Mice were then euthanized and the length of the colon was measured and graphed in (A-B). Colonic tissues were also analyzed for TNFα (C) and IL6(D). E. H&E staining was performed on colonic sections. The data represent n=4 mice/group, *P<0.05 versus DSS and **P<0.05 versus CON.
BC-1215 ameliorates DSS induced colitis. BC-1215 was also tested in a mouse colitis model to confirm its anti-inflammatory activity. Briefly, C57BL6 mice were fed with water containing 3.5% dextran sulfate sodium (DSS) for up to five days. Mice were treated with either vehicle or 200 ug of BC-1215 daily (via IP injection). Mice were then euthanized; the length of colons was measured. […] Colonic tissue cytokine levels were analyzed. […] Thus, the FBXO3 inhibitor BC-1215 suppresses inflammation in chemical induced colitis model in mice.

SMILES | IC50 (cytokine secretion) [1] | LD50 [2] | further results
c1cn(-c2ccc(CNCCNCc3ccc(-n4ccnc4)cc3)cc2)cn1 [BC-1207] | high | low | –
Fc1ccc(CNCCNCc2ccc(-c3ccccn3)cc2)cc1 [BC-1241] | high | low | –
c1cnn(-c2ccc(CNCCNCc3ccc(-n4cccn4)cc3)cc2)c1 [BC-1250] | high | low | –
c1csc(-c2ccc(CNCCNCc3ccc(-c4nccs4)cc3)cc2)n1 [BC-1258] | – | – | apoptosis [3]: apoptosis; cell cycle arrest ([3]; different concentrations, 16 h): Induces G2/M arrest; tumor growth [4]: suppresses tumor growth in xenograft
c1cnc(-c2ccc(CNCCNCc3ccc(-c4ncccn4)cc3)cc2)nc1 [BC-1261] | high | low | TPA induced ear edema [5]: reduces TPA induced ear edema; smoke induced chronic lung inflammation [6]: reduces smoke induced chronic lung inflammation; P. aeruginosa induced lung inflammation [7]: reduces P. aeruginosa induced lung inflammation; DSS induced chronic colonic inflammation [8]: reduces DSS induced chronic colonic inflammation; DSS induced acute colonic inflammation [9]: reduces DSS induced acute colonic inflammation
